# Results as given in ChEMBL document CHEMBL4177750, “Imidazopyrazinones (IPYs): Non-Quinolone Bacterial Topoisomerase Inhibitors Showing Partial Cross-Resistance with Quinolones” (J Med Chem, 2018).
# Activity calls are given as the source filed them. The calls are words filed in the database; no cut-off is given here.
# Tests used:
# Pseudomonas aeruginosa [1] = assay: Antibacterial activity against Pseudomonas aeruginosa PAO750 harboring mexAB-oprM/mexCD-oprJ/mexEF-oprN/mexXY/opmH/mexJK/pscC deletion mutant after 20 to 22 hrs; assay type: functional
# Escherichia coli [2] = assay: Antibacterial activity against ESBL producing Escherichia coli ATCC 35218 after 20 to 22 hrs; assay type: functional
# Pseudomonas aeruginosa [3] = assay: Antibacterial activity against Pseudomonas aeruginosa PAO1 after 20 to 22 hrs; assay type: functional
# Escherichia coli [4] = assay: Antibacterial activity against tolC-deficient Escherichia coli K-12 MG1655 after 20 to 22 hrs; assay type: functional; settings: K-12 substr. MG1655
# Escherichia coli [5] = assay: Antibacterial activity against Escherichia coli K-12 MG1655 after 20 to 22 hrs; settings: K-12 substr. MG1655
# Escherichia coli [6] = assay: Antibacterial activity against hyperpermeable Escherichia coli D22 harboring LpxC mutant after 20 to 22 hrs
# Staphylococcus aureus [7] = assay: Antibacterial activity against methicillin-resistant Staphylococcus aureus ATCC 33592 after 20 to 22 hrs; assay type: functional
# Escherichia coli [8] = assay: Antibacterial activity against tolC-deficient fluoroquinolones-resistant Escherichia coli W4753 clinical isolate harboring DNA gyrase S83L/D87N/ParC S80I/ParE S458A mutant after 20 to 22 hrs
# Escherichia coli [9] = assay: Antibacterial activity against tolC-deficient fluoroquinolones-sensitive Escherichia coli JC7623 clinical isolate harboring wild type DNA gyrase after 20 to 22 hrs
# Staphylococcus aureus [10] = assay: Antibacterial activity against methicillin-resistant Staphylococcus aureus ATCC 33592 after 20 to 22 hrs in presence of 50% calf fetal serum; assay type: functional, organism-based
# [11] = Metabolic stability in mouse plasma at 1 uM after 4 hrs; assay type: ADME, cell-free; settings: read-out: Stability
# L5178Y [12] = assay: Genotoxicity in mouse L5178Y cells after 23 hrs in absence of S9 fraction by micronucleus test; assay type: toxicity, cell-based
# [13] = Metabolic stability in rat plasma at 1 uM after 4 hrs; assay type: ADME, cell-free; settings: read-out: Stability
# L5178Y [14] = assay: Genotoxicity in mouse L5178Y cells after 3 hrs in presence of S9 fraction by micronucleus test; assay type: toxicity, cell-based; settings: s9, 3 h
# [15] = Drug metabolism in mouse liver microsomes at 5 uM after 20 mins in presence of NADPH; assay type: ADME, microsome; settings: read-out: Drug metabolism
# [16] = Drug metabolism in human liver microsomes at 5 uM after 20 mins in presence of NADPH; assay type: ADME, microsome; settings: read-out: Drug metabolism
# [17] = Drug metabolism in rat liver microsomes at 5 uM after 20 mins in presence of NADPH; assay type: ADME, microsome; settings: read-out: Drug metabolism
# Staphylococcus aureus [18] = assay: Antibacterial activity against methicillin-resistant Staphylococcus aureus ATCC 33592 after 20 to 22 hrs in presence of 50% mouse serum; assay type: functional, organism-based
# DNA gyrase = DNA gyrase (Escherichia coli, UniProt P0AES4+P0AES6)
# Description: Inhibition of Escherichia coli DNA gyrase A2B2 using relaxed pNO1 as substrate
# [19] = Drug degradation in DMSO solution in presence of glutathione measured within 1 hr; assay type: physicochemical; settings: DMSO solution with glutathione; read-out: Drug degradation
# [20] = Permeability across human Caco2 cells; assay type: ADME, cell-based; settings: Caco-2
# [21] = Cytotoxicity against human HepG2 cells assessed as decrease in cell viability after 40 hrs by Celltiter Glo assay
# hERG (KCNH2) = hERG (KCNH2) (Homo sapiens, UniProt Q12809); assay: Inhibition of human ERG transfected in CHO cells at 10 uM by patch clamp method relative to control; assay type: cell-based; settings: CHO cells transfected with human ERG
# Chain of hERG (KCNH2) (Q12809 whole entry): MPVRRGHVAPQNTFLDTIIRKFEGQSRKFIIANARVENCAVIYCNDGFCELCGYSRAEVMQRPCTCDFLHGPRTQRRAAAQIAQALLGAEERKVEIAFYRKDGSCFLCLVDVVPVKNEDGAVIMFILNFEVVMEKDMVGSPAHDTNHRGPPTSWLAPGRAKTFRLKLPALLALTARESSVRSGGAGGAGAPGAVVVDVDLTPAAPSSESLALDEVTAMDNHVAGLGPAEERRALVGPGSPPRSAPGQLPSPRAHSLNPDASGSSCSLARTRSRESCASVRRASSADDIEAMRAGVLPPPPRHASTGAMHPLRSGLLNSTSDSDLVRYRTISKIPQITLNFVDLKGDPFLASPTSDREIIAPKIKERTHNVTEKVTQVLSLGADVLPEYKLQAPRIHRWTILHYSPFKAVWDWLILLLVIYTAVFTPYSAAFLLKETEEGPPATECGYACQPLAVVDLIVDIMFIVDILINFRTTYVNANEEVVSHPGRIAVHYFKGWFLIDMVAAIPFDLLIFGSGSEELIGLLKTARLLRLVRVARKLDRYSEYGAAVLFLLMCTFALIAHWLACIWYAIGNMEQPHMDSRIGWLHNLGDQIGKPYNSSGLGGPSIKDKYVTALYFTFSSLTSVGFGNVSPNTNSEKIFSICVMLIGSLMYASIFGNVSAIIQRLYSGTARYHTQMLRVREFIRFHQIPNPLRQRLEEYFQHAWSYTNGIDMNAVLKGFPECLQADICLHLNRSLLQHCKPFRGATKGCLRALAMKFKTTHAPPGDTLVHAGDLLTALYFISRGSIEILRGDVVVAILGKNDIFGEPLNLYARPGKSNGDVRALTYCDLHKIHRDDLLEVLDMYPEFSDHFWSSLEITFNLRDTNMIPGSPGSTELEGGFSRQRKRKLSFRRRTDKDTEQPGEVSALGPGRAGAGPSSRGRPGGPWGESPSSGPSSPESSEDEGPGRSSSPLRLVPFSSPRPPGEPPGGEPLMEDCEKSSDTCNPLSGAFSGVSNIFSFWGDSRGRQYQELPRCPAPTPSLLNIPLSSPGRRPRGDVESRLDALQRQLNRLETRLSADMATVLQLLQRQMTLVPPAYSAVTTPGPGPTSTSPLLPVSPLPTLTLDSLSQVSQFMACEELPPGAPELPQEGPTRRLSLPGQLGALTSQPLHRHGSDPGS
# [22] = Solubility of the compound in water; assay type: physicochemical; settings: buffer
# Staphylococcus aureus [23] = assay: Ratio of MIC for methicillin-resistant Staphylococcus aureus ATCC 33592 in presence of 50% mouse serum to MIC for methicillin-resistant Staphylococcus aureus ATCC 33592 in absence of 50% mouse serum; assay type: functional
# [24] = Metabolic stability in mouse liver microsomes; assay type: ADME, microsome
# Staphylococcus aureus [25] = assay: Ratio of MIC for methicillin-resistant Staphylococcus aureus ATCC 33592 in presence of 50% calf fetal serum to MIC for methicillin-resistant Staphylococcus aureus ATCC 33592 in absence of 50% calf fetal serum; assay type: functional
# [26] = Drug degradation in DMSO solution in presence of mercaptoethanol measured within 1 hr; assay type: physicochemical; settings: DMSO solution with mercaptoethanol; read-out: Drug degradation
# [27] = Metabolic stability in human liver microsomes; assay type: ADME, microsome
# [28] = Chemical stability in pH 7.4 buffer solution; assay type: physicochemical
# Klebsiella pneumoniae [29] = assay: Antibacterial activity against Klebsiella pneumoniae 1161486 harboring GyrA S83I mutant after 20 to 22 hrs; assay type: functional
# Staphylococcus aureus [30] = assay: Antibacterial activity against Staphylococcus aureus RN4220 harboring ParC S80F mutant after 20 to 22 hrs; assay type: functional
# Staphylococcus aureus [31] = assay: Antibacterial activity against Staphylococcus aureus RN4220 harboring GyrA D83N/ParC D79N double mutant after 20 to 22 hrs; assay type: functional
# Klebsiella pneumoniae [32] = assay: Antibacterial activity against Klebsiella pneumoniae 1161486 harboring GyrA S83I/ParC S80I double mutant after 20 to 22 hrs; assay type: functional
# Staphylococcus aureus [33] = assay: Antibacterial activity against Staphylococcus aureus RN4220 harboring ParC S80F/GyrA S84L double mutant after 20 to 22 hrs; assay type: functional
# Staphylococcus aureus [34] = assay: Antibacterial activity against Staphylococcus aureus RN4220 harboring GyrA D83N mutant after 20 to 22 hrs; assay type: functional
# Klebsiella pneumoniae [35] = assay: Antibacterial activity against Klebsiella pneumoniae 1161486 harboring GyrA S83F/D87V/ParC S80I triple mutant after 20 to 22 hrs; assay type: functional
# Klebsiella pneumoniae [36] = assay: Antibacterial activity against wild type Klebsiella pneumoniae 1161486 after 20 to 22 hrs; assay type: functional
# Staphylococcus aureus [37] = assay: Antibacterial activity against Staphylococcus aureus RN4220 harboring GyrB D437N mutant after 20 to 22 hrs; assay type: functional
# Staphylococcus aureus [38] = assay: Antibacterial activity against wild type Staphylococcus aureus RN4220 after 20 to 22 hrs; assay type: functional
SMILES,MIC (Pseudomonas aeruginosa [1]) [µg/mL],MIC (Escherichia coli [2]) [µg/mL],MIC (Pseudomonas aeruginosa [3]) [µg/mL],MIC (Escherichia coli [4]) [µg/mL],MIC (Escherichia coli [5]) [µg/mL],MIC (Escherichia coli [6]) [µg/mL],MIC (Staphylococcus aureus [7]) [µg/mL],MIC (Escherichia coli [8]) [µg/mL],MIC (Escherichia coli [9]) [µg/mL],also measured
N[C@H]1CCN(c2cc3c(cc2F)c(=O)n(N)c(=O)n3C2CC2)C1,< 0.125,1,32,< 0.125,1,0.5,2,,,
Cn1c(=O)c2nccn2c2/c(=C/c3ccncc3)c3ccccc3c21,> 64,> 64,> 64,< 0.125,> 64,> 64,> 64,0.25,0.016,
O=c1c2ncnn2c2cc(F)c(-c3ccncc3)cc2n1C1CC1,32,32,> 64,< 0.125,> 64,32,16,,,
O=c1c2nccn2c2cc(F)c(-c3ccncc3)cc2n1C1CC1,8,16,> 64,< 0.125,32,,4,0.5,0.063,"Activity (Staphylococcus aureus [10]): Active; remaining at 4 h, 1 µM [11]: 80 to 120%; Activity (L5178Y [12]): Toxic; remaining at 4 h, 1 µM [13]: 80 to 120%; Activity (L5178Y [14]): Toxic; metabolised at 20 min, 5 µM [15]: 81%; metabolised at 20 min, 5 µM [16]: 13%; metabolised at 20 min, 5 µM [17]: 68%; Activity (Staphylococcus aureus [18]): Active"
N[C@H]1CCN(c2cc3c(cc2F)n2cncc2c(=O)n3C2CC2)C1,1,16,> 64,1,32,16,16,,,Activity (Staphylococcus aureus [10]): Active; Activity (Staphylococcus aureus [18]): Active
CNc1cc(=O)n(C)c2c1/C(=C/c1ccncc1)c1ccccc1-2,,,,,,,,2,1,
O=c1c2cncn2c2cc(F)c(-c3ccncc3)cc2n1C1CC1,32,64,> 64,0.25,> 64,64,64,,,
N[C@H]1CCN(c2cc3c(cc2F)c2nc[nH]c2c(=O)n3C2CC2)C1,0.5,16,64,0.5,64,16,16,,,Activity (Staphylococcus aureus [10]): Active; Activity (Staphylococcus aureus [18]): Active
Cn1cc(-c2ccc(NC(=O)Cc3ccc(Cl)cc3)cc2)n2ccnc2c1=O,> 32,> 32,> 32,1,> 32,32,> 32,4,0.125,IC50 (DNA gyrase): 6.35 µM
O=c1c2nccn2c2cc(F)c(-c3ccccn3)cc2n1C1CC1,> 64,> 64,> 64,4,> 64,> 64,> 64,,,
CC(=O)Nc1ccc(/C=c2\c3ccccc3c3c2n2ccnc2c(=O)n3C)cc1,> 64,> 64,> 64,< 0.125,> 64,> 64,0.25,2,0.063,degraded at 1 h [19]: > 50%; permeability [20]: Impermeable; CC50 at 40 h [21]: 8.4 µM; inhibition at 10 µM (hERG (KCNH2)): > 50%; solubility [22]: Insoluble; Ratio (Staphylococcus aureus [23]): >32; Stability [24]: Unstable; Ratio (Staphylococcus aureus [25]): >32; degraded at 1 h [26]: > 50%; Stability [27]: Unstable; Stability [28]: Stable
O=c1c2nccn2c2cc(F)c(-c3cccnc3)cc2n1C1CC1,4,16,> 64,< 0.125,32,8,64,,,
O=C(O)c1cn(C2CC2)c2cc(N3CCNCC3)c(F)cc2c1=O [CIPROFLOXACIN],< 0.125,< 0.125,,< 0.125,,< 0.125,,,,MIC (Klebsiella pneumoniae [29]): 1 µg/mL; MIC (Staphylococcus aureus [30]): 1 to 2 µg/mL; MIC (Staphylococcus aureus [31]): 1 µg/mL; MIC (Klebsiella pneumoniae [32]): 8 µg/mL; MIC (Staphylococcus aureus [33]): 64 µg/mL; MIC (Staphylococcus aureus [34]): 0.25 µg/mL; MIC (Klebsiella pneumoniae [35]): 8 µg/mL; MIC (Klebsiella pneumoniae [36]): < 0.063 µg/mL; MIC (Staphylococcus aureus [37]): 0.25 µg/mL; MIC (Staphylococcus aureus [38]): 0.25 µg/mL
